Laboratory results from US20210323914A1, “IONIZABLE CATIONIC LIPID FOR RNA DELIVERY” (Arcturus Therapeutics, Inc., priority 2017, published 2021).

Legend:
[1] = Measured pKa of cationic lipids in LNP or micellar formulations by TNS fluorescence; assay type: physicochemical; settings: measured in the Formulation milieu, TNS fluorescence, 1 mM total lipids
Description: pKa of cationic lipids in LNP or micellar Formulations were measured by the procedure of Jayaraman, 2012, Angew. Chem. Int. Ed., 51:8529-33, hereby incorporated by reference. Lipid micelles or LNPs are diluted to 1 mM total lipids in universal buffer with a pH range between 3 and 12 in presence of 0.06 mg/mL 6-(p-toluidino)-2-naphthalenesulfonic acid sodium salt (TNS) reagent (Sigma Aldrich), a pH sensitive fluorescence probe. The anionic TNS molecule fluoresces when associated with the surface of positively charged membranes but is not fluorescent when free in solution, allowing measurement of pKa. The TNS signal is measured on a spectral plate reader. The TNS signal is plotted as function of the pH and analyzed using a non-linear (Boltzman) to determine the pKa.
Reagents used in the assay include • Hepes free acid, CAS: 7365-45-9 (VWR, 0511-1KG or equivalent) • MES, HPLC grade: (Sigma 105228-100G or equivalent) • Ammonium acetate, HPLC grade: (Sigma 90335-100 mL or equivalent) • Sodium chloride, HPLC grade (VWR EM-MX0475-1 or equivalent) • TNS (Sigma-Aldrich T9792-250 mg or equivalent) • Hydrochloric acid • DMSO • DPBS without calcium and magnesium (GE, SH30028.02 or equivalent) • H2O, HPLC grade (OmniSolv, WX0004-1 or equivalent)
To prepare a stock solution of Universal Buffer (UB) in a polystyrene sterile storage bottle, prepare 1 L using the following table.
Reagents are sterile filtered through a 0.2 μm filter. Preparation of UB solution includes adding 5 mL of 1 M HCl to a 350 mL stock solution.
To prepare a pH ladder, centrifuge tubes (50 mL) with 20 mL UB buffer are used. (pH ˜3) and differing amounts of 2 N NaOH. Stock solutions of TNS at 1 mg/mL in DMSO. 60 μL of TNS at 1 mg/mL is added to 940 μL water to reach a working solution concentration of 0.06 mg/mL. Five test samples, 1 mL of LNP sample in PBS at 1 mM total lipid, and 1 reference sample are analyzed per plate. Samples at different pH values are prepared in wells in which 25 μL of 0.06 mg/mL TNS is added. 15 μL of test samples is added per well. The microplate is incubated for 15 minutes at room temperature in the dark. TNS template can be used to format data from the plate reader. Perform non-linear (Boltzman) regression analysis of the samples in Origin Pro 8 or equivalent software.

Factor VII = test: In vivo mouse Factor VII siRNA knockdown with lipid nanoparticles; parameters: species or system C57BL/6 mice; settings: intravenous, mice, 48 hours
Description: The first pair of numbers denotes the number of carbons in the ester, including the carbonyl, for L1 and L2; the pair of numbers in the parenthesis denotes the number of carbons in each branch of the branched alkyl, R1 or if R2 is also branched, R1/R2 (an asterisk denotes a double bond); the number of carbons in R3 is given; and the last line denotes the substitution for R4 and R5. The ATX number is given for reference herein. Calculated Log D values (c-Log D) and calculated pKa (c-pKa) values are given, as well as measured pKa in parenthesis (measured in the Formulation milieu). The c-Log D and c-pKa values are generated by ACD Labs Structure Designer v12.0. Bioactivity is percentage in vivo Factor VII knockdown at a dose of 0.03 mg/kg, unless otherwise designated.
Using a liver-directed in vivo screen of the liposome libraries, a series of compounds were tested that facilitate high levels of siRNA mediated gene silencing in hepatocytes, the cells comprising the liver parenchyma. Factor VII, a blood-clotting factor, is a suitable target gene for assaying functional siRNA delivery to liver. Because this factor is produced specifically in hepatocytes, gene silencing indicates successful delivery to parenchyma, as opposed to delivery to the cells of the reticulo-endothelial system (e.g., Kupffer cells). Furthermore, Factor VII is a secreted protein that can be readily measured in serum, obviating the need to euthanize animals. Silencing at the mRNA level can be readily determined by measuring levels of protein. This is because the protein's short half-life (2-5 hour). Compositions with siRNA directed to […] were Formulated with the lipid, and comparator sample phosphate-buffered saline (PBS). Female C57BL/6 mice (6-8 week old) were used for FVII siRNA knockdown (KD) experiments.
All Formulations were administered intravenously via tail vein injection at a dose of 0.03 and 0.1 mg/kg at a dosing volume of […]. Terminal blood collection was performed via cardiac puncture under 2% isoflurane at 48 hours after Formulation injections. Blood was collected into 0.109 M citrate buffer tube and processed by centrifugation at 1200 G for 10 min. Plasma was collected and Factor VII protein levels were analyzed by chromogenic assay (Biophen FVII, Aniara Corporation). A standard curve was constructed using samples from PBS-injected mice and relative Factor VII expression was determined by comparing treated groups to untreated PBS control.

Row | SMILES | pKa [1] | Bioactivity: percentage in vivo Factor VII knockdown (Factor VII; dose 0.03 mg/kg) | Bioactivity: percentage in vivo Factor VII knockdown (Factor VII; dose 0.1 mg/kg)
1 | CCCCCC(CCCCC)OC(=O)CN(CC(=O)OC(CCCCC)CCCCC)C(=O)SCCCN(CC)CC | 6.21 |  | 
2 | CCCCCC/C=C\COC(=O)CN(CC(=O)OC(CCCCCCC)CCCCCCC)C(=O)SCCCN(C)C | 6.44 | 62 percentage | 
3 | CCCCCCCC(CCCCCCC)OC(=O)CN(CC(=O)OC(CCCCCCC)CCCCCCC)C(=O)SCCCN(C)C | 5.68 | 25 percentage | 
4 | CCCCCC/C=C\COC(=O)CN(CC(=O)OC(CCCCCCCC)CCCCCCCC)C(=O)SCCCN(C)C | 6.38 | 97 percentage | 
5 | CCCCCC/C=C\COC(=O)CN(CC(=O)OC(CCCCCCCC)CCCCCCCC)C(=O)SCCCN(CC)CC | 6.2 | 82 percentage | 
6 | CCCCCC/C=C\COC(=O)CN(CC(=O)OC(CCCCCCCC)CCCCCCCC)C(=O)SCCCCN(C)C | 6.69 | 90 percentage | 
7 | CCCCCC/C=C\COC(=O)CN(CC(=O)OC(CCCCCCCC)CCCCCCCC)C(=O)SCCCCN(CC)CC | 6.9 | 97 percentage | 
8 | CCCCCC/C=C\COC(=O)CCCN(CC(=O)OC(CCCCCCC)CCCCCCC)C(=O)SCCN(C)C | 5.83 | 40 percentage | 
9 | CCCCCC/C=C\COC(=O)CCCN(CC(=O)OC(CCCCCCC)CCCCCCC)C(=O)SCCCN(C)C | 6.85 | 53 percentage | 
10 | CCCCCC/C=C\COC(=O)CCCN(CC(=O)OC(CCCCCCC)CCCCCCC)C(=O)SCCCN(CC)CC | 6.53 | 70 percentage | 
11 | CCC/C=C/CCC(CC/C=C/CCC)OC(=O)CCCN(CCCC(=O)OC/C=C\CCCCCC)C(=O)SCCN(C)C | 6 | 72 percentage | 
12 | CCCCCC/C=C\COC(=O)CCCN(CCCC(=O)OC(CCCCCCC)CCCCCCC)C(=O)SCCCN(CC)CC | 6.66 | 96 percentage | 
13 | CCCCCC/C=C\COC(=O)CCCN(CCCC(=O)OC(CCCCCCC)CCCCCCCC)C(=O)SCCCN(CC)CC (centres unmarked) | 6.65 | 93 percentage | 
14 | CCCCCC/C=C\COC(=O)CCCN(CCCC(=O)OC(CCCCCCCC)CCCCCCCC)C(=O)SCCCN(CC)CC | 6.58 | 75 percentage | 
15 | CCCCCC(CCCCC)OC(=O)CCCN(CCCC(=O)OC(CCCCC)CCCCC)C(=O)SCCCN(C)C | 6.8 |  | 14 (0.1 mg/ kg) percentage
16 | CCCCCC(CCCCC)OC(=O)CCCN(CCCC(=O)OC(CCCCC)CCCCC)C(=O)SCCCN(CC)CC | 5.56 |  | 27 (0.1 mg/ kg) percentage
17 | CCCCCCCC(CCCCCCC)OC(=O)CCCN(CCCC(=O)OC(CCCCCCC)CCCCCCC)C(=O)SCCCN(C)C | 6.38 | 99 percentage | 
18 | CCCCCCCC(CCCCCCC)OC(=O)CCCN(CCCC(=O)OC(CCCCCCC)CCCCCCC)C(=O)SCCCN(CC)CC | 6.31 | 97 percentage | 
19 | CCC/C=C/CCC(CC/C=C/CCC)OC(=O)CCCN(CCCCCC(=O)OC/C=C\CCCCCC)C(=O)SCCN(C)C | 5.93 | 75 percentage | 
20 | CCCCCC/C=C\COC(=O)CCCCCN(CCCC(=O)OC(CCCCCCCC)CCCCCCCC)C(=O)SCCN(C)C | 5.38 | 81 percentage | 
21 | CCCCCC/C=C\COC(=O)CCCCCN(CCCCC(=O)OC(CCCCCCC)CCCCCCC)C(=O)SCCN(C)C | 5.9 | 90 percentage | 
22 | CCCCCC/C=C\COC(=O)CCCCCCCN(CCCCCCCC(=O)OC(CCCCC)CCCCC)C(=O)SCCN(C)C | 5.81 | 68 percentage | 
23 | CCCCCCC(CCCCC)OC(=O)CCCN(CCCCC(=O)OC(CCCCC)CCCCC)C(=O)SCCN(C)C (centres unmarked) [ATX-0085] |  | 56 percentage | 
